Experimental data: PubChem BioAssay (NCI)
Several values for one entry are separate records, joined by “and”; a condition that tells them apart may be missing. Equal entries are not always repeated.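 Assay format: 96-well plates, 48-hour exposure. Here, GI50 denotes the concentration required for 50% inhibition of growth. TGI denotes the concentration required for complete inhibition of growth.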

Key:
Assay in all cases: growth of human tumour cells (NCI), 48 h
A498 renal = system: A498 renal
HS 578T breast = system: HS 578T breast
KM12 colon = system: KM12 colon
MDA-MB-435 = system: MDA-MB-435
OVCAR-4 ovarian = system: OVCAR-4 ovarian
SW-620 colon = system: SW-620 colon
MOLT-4 leukemia = system: MOLT-4 leukemia

SMILES | GI50 (A498 renal) | TGI (A498 renal) | GI50 (HS 578T breast) | TGI (HS 578T breast) | GI50 (KM12 colon) | TGI (KM12 colon) | GI50 (MDA-MB-435) | TGI (MDA-MB-435) | GI50 (OVCAR-4 ovarian) [µM] | TGI (OVCAR-4 ovarian) | GI50 (SW-620 colon) | TGI (SW-620 colon) | TGI (MOLT-4 leukemia) | GI50 (MOLT-4 leukemia)
CCN(CC)CCCC(C)Nc1nc(C)cc(Nc2ccc3nc(C)cc(N)c3c2)n1 (centres undefined) | > 100 µM | > 100 µM | 24.6 µM | 65.1 µM | 19.3 µM | 40.1 µM | 14.5 µM | 29.5 µM | 20.9 | 60.8 µM | 35.8 µM | > 100 µM | – | –
O=[N+]([O-])/C=C/c1cc2ccccc2[nH]1 | – | 34.4 µM | – | 50 µM | – | 25 µM | – | 6.95 µM | – | 27.4 µM | – | 34.5 µM | 44.2 µM | –
CS(=O)(=O)Nc1cccc(-c2cc(-c3ccccc3Cl)c(C#N)c(N)n2)c1 | 0.669 µM | 14.4 µM | 0.321 µM | 6.62 µM | 0.443 µM | 13.1 µM | 0.165 µM | 1.76 µM | 1.92 | 35.6 µM | 0.425 µM | 16.7 µM | > 51.5 µM | 0.894 µM
CCCCCCCCCCCCCCCC[N+](C)(CCO)Cc1cnc[nH]1 (centres undefined) | 2.93 µM | 12.2 µM | 2.85 µM | 35.9 µM | – | – | 1.44 µM | 3.81 µM | 0.978 | 56.4 µM | 0.978 µM | 13.7 µM | – | –
COC1=CC23CCCN2CCc2cc4c(cc2C3C1O)OCO4 (centres undefined) | – | > 100 µM | – | > 100 µM | – | > 100 µM | – | > 100 µM | – | > 100 µM | – | > 100 µM | > 100 µM | –
CCn1cc(-c2ccnc3[nH]ccc23)c(-c2cccc(NC(=O)Nc3ccc(OCc4ccccc4)cc3)c2)n1 | 7.64 µM | > 25 µM | 4.85 µM | > 25 µM | 7.44 µM | > 25 µM | 11 µM | > 25 µM | > 23.4 | > 25 µM | 20.2 µM | > 25 µM | > 25 µM | 6.85 µM
CN1C(=O)[C@@H](NC(=O)[C@H](CCC(F)(F)F)[C@H](CCC(F)(F)F)C(N)=O)N=C(c2ccccc2)c2ccccc21 | 47.7 µM | > 100 µM | > 100 µM | > 100 µM | > 100 µM | > 100 µM | 85.6 µM | > 100 µM | 86.8 | > 100 µM | > 100 µM | > 100 µM | > 100 µM | 27.3 µM
S=C(Nc1ccc(Cl)cc1)Nc1ccc(-c2nc3ccccc3o2)cc1 | – | – | 21.2 µM | 79.2 µM | 15.8 µM | 42.9 µM | 18.5 µM | 43.9 µM | 25.1 | > 100 µM | 19.8 µM | 60.3 µM | > 100 µM | 18.5 µM
Nc1ncnc2c1c(-c1cccc(OCc3ccccc3)c1)cn2C1CC(CN2CCC2)C1 (centres undefined) | 1.74 µM and 1.24 µM | 5.59 µM and 6.85 µM | 2.97 µM and 1.57 µM | 24.8 µM and 5.8 µM | 2.72 µM and 3.07 µM | 8.97 µM and > 10 µM | 1.21 µM and 1.49 µM | 3.12 µM and 6.89 µM | 3.49 | 15.3 µM and > 10 µM | 1.29 µM and 1.56 µM | 6.47 µM and > 10 µM | 8.59 µM and > 10 µM | 2.82 µM and 2.56 µM
